{
  "source": "paper PMC6080930",
  "about": "(The Journal of Cell Biology, 2018)",
  "biological_target": "adenylyl cyclase A (ACA); ACA-YFP (Dictyostelium discoideum, UniProt Q03100)",
  "sequence (Q03100 whole entry)": "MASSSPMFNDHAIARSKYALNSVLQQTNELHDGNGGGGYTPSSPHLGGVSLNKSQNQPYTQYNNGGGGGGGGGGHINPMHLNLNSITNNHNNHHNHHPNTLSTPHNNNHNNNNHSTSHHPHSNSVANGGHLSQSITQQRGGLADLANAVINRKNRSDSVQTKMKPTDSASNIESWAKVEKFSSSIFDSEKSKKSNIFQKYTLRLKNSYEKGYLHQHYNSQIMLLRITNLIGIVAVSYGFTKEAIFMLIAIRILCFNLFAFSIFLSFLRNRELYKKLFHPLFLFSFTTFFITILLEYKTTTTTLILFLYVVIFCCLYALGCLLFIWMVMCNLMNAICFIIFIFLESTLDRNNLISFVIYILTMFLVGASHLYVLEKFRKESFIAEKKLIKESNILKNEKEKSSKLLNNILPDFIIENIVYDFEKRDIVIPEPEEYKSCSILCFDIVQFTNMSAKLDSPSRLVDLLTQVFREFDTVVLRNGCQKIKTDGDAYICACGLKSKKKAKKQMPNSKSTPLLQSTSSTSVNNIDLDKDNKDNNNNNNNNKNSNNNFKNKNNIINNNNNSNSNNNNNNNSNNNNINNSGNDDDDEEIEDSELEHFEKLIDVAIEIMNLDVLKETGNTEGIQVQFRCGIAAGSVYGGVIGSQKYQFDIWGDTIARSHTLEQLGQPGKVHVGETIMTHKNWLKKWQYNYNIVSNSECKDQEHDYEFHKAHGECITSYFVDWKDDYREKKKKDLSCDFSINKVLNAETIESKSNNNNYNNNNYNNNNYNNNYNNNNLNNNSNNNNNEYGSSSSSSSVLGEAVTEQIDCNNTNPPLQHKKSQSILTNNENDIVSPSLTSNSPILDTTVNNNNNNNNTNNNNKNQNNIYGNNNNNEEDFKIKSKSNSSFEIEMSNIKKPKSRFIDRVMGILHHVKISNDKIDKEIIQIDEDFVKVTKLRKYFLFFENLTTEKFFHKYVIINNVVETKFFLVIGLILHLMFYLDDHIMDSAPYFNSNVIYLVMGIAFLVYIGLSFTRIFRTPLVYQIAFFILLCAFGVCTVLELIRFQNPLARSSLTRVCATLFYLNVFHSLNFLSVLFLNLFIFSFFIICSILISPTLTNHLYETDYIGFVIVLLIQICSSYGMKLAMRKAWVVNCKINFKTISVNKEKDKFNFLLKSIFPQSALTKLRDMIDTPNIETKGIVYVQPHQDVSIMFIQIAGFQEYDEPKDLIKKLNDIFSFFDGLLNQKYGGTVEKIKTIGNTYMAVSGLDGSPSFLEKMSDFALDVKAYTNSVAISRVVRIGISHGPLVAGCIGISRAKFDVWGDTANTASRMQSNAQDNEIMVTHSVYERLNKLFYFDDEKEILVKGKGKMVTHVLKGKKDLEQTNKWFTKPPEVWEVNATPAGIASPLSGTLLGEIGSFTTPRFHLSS",
  "conditions": "labelled compound; 2 mM MnSO4, 2 mM MgSO4, Tris pH 8.0, 22°C, 10 min; lysed EVs",
  "data": [
    {"smiles": "Nc1ncnc2c1ncn2[C@@H]1O[C@H](COP(=O)(O)OP(=O)(O)OP(=O)(O)O)[C@@H](O)[C@H]1O", "note": "[ATP]", "values": [
      {"measurement": "conversion of [32P]ATP to [32P]cAMP, Dowex/alumina columns", "value": "MnSO4 induced an increase in adenylyl cyclase activity in ACA-YFP/aca^− EVs"}
    ]}
  ]
}
